Assay results as given in ChEMBL document CHEMBL1201862, “PubChem BioAssay data set” (2004).
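Growth conditions: 96-well plates. Treatment: test compound, 48 hours, 5 concentrations. Analysis: linear interpolation between bracketing concentrations; unreached endpoints set to highest concentration. The concentration for 50% growth inhibition is given as GI50.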 Calls of active or inactive are those of the source. No stated cut-off is given here; in the data, active = GI50 up to about 1.1 µM and inactive = higher.

Columns and labels:
Experiment in all cases: NCI-60 cell line screen, 48 h
786-0 = system: 786-0
A498 = system: A498
A549 = system: A549
ACHN = system: ACHN
BT-549 = system: BT-549
CAKI-1 = system: CAKI-1
CCRF-CEM = system: CCRF-CEM
COLO 205 = system: COLO 205
DU-145 = system: DU-145
EKVX = system: EKVX
HCC 2998 = system: HCC 2998
HCT-116 = system: HCT-116
HCT-15 = system: HCT-15
HL-60 = system: HL-60
HOP-92 = system: HOP-92
IGROV-1 = system: IGROV-1
K562 = system: K562
KM12 = system: KM12
LOX IMVI = system: LOX IMVI
M14 = system: M14
MCF7 = system: MCF7
MDA-MB-231 = system: MDA-MB-231
MDA-MB-435 = system: MDA-MB-435
MDA-N = system: MDA-N
MOLT-4 = system: MOLT-4
Malme-3M = system: Malme-3M
NCI-H226 = system: NCI-H226
NCI-H23 = system: NCI-H23
NCI-H460 = system: NCI-H460
NCI-H522 = system: NCI-H522
NCI/ADR-RES = system: NCI/ADR-RES
OVCAR-3 = system: OVCAR-3
OVCAR-4 = system: OVCAR-4
OVCAR-5 = system: OVCAR-5
OVCAR-8 = system: OVCAR-8
PC-3 = system: PC-3
RPMI-8226 = system: RPMI-8226
RXF 393 = system: RXF 393
SF-295 = system: SF-295
SF-539 = system: SF-539
SK-MEL-28 = system: SK-MEL-28
SK-MEL-2 = system: SK-MEL-2
SK-MEL-5 = system: SK-MEL-5
SK-OV-3 = system: SK-OV-3
SN12C = system: SN12C
SNB-19 = system: SNB-19
SNB-75 = system: SNB-75
SR = system: SR
SW-620 = system: SW-620
TK-10 = system: TK-10
U-251 = system: U-251
UACC-257 = system: UACC-257
UACC-62 = system: UACC-62
UO-31 = system: UO-31
HOP-62 = system: HOP-62
HT-29 = system: HT-29
Hs-578T = system: Hs-578T
SF-268 = system: SF-268

In the case of `CC(C)CC(NC(=O)C(CCI)Cc1ccccc1)C(=O)Nc1ccccc1` (configuration not stated), the GI50 (786-0) is reported as > 100 µM (inactive), the GI50 (A498) is reported as > 100 µM (inactive) and the GI50 (A549) is reported as 80.9 µM (inactive). For the same compound, the GI50 (ACHN) was 53.5 µM (inactive), the GI50 (BT-549) was 10.8 µM (inactive) and the GI50 (CAKI-1) was > 100 µM (inactive). For the same compound, the GI50 (CCRF-CEM) was 30.1 µM (inactive), the GI50 (COLO 205) was 95.9 µM (inactive) and the GI50 (DU-145) was > 100 µM (inactive). The GI50 (EKVX) was 42 µM (inactive), the GI50 (HCC 2998) was > 100 µM (inactive) and the GI50 (HCT-116) was 43.4 µM (inactive). For the same compound, the GI50 (HCT-15) was 49.9 µM, the GI50 (HL-60) was 18 µM (inactive) and the GI50 (HOP-92) was > 100 µM (inactive). For the same compound, the GI50 (IGROV-1) was 51.1 µM (inactive), the GI50 (K562) was 44.6 µM (inactive) and the GI50 (KM12) was 37.5 µM (inactive). The GI50 (LOX IMVI) was 33.3 µM (inactive), the GI50 (M14) was 35.6 µM (inactive) and the GI50 (MCF7) was 39.7 µM (inactive). For the same compound, the GI50 (MDA-MB-231) was > 100 µM (inactive), the GI50 (MDA-MB-435) was 58.5 µM (inactive) and the GI50 (MDA-N) was > 100 µM (inactive). The GI50 (MOLT-4) was 26.7 µM (inactive), the GI50 (Malme-3M) was > 100 µM (inactive) and the GI50 (NCI-H226) was 58.6 µM (inactive). The GI50 (NCI-H23) was 49 µM (inactive), the GI50 (NCI-H460) was 80.2 µM (inactive) and the GI50 (NCI-H522) was 27.7 µM (inactive). The GI50 (NCI/ADR-RES) was 19 µM (inactive), the GI50 (OVCAR-3) was > 100 µM (inactive) and the GI50 (OVCAR-4) was > 100 µM (inactive). For the same compound, the GI50 (OVCAR-5) was > 100 µM (inactive), the GI50 (OVCAR-8) was 49.5 µM (inactive) and the GI50 (PC-3) was 51.1 µM (inactive). The GI50 (RPMI-8226) was 36.9 µM (inactive), the GI50 (RXF 393) was > 100 µM (inactive) and the GI50 (SF-295) was > 100 µM (inactive). For the same compound, the GI50 (SF-539) was > 100 µM (inactive), the GI50 (SK-MEL-28) was > 100 µM (inactive) and the GI50 (SK-MEL-2) was > 100 µM (inactive). The GI50 (SK-MEL-5) was 55.3 µM (inactive), the GI50 (SK-OV-3) was > 100 µM (inactive) and the GI50 (SN12C) was > 100 µM (inactive). The GI50 (SNB-19) was 98.2 µM (inactive), the GI50 (SNB-75) was 93.8 µM (inactive) and the GI50 (SR) was 22.8 µM (inactive). The GI50 (SW-620) was 49.8 µM (inactive), the GI50 (TK-10) was 88.7 µM (inactive) and the GI50 (U-251) was > 100 µM (inactive). For the same compound, the GI50 (UACC-257) was > 100 µM (inactive), the GI50 (UACC-62) was > 100 µM (inactive) and the GI50 (UO-31) was 22.1 µM (inactive).
`CCN(CC)CCO/N=C1\CC[C@H]2[C@@H]3CC=C4C[C@@H](O)CC[C@]4(C)[C@H]3CC[C@]12C` was tested, and the GI50 (786-0) was 17.3 µM (inactive), the GI50 (A498) was 18.5 µM (inactive) and the GI50 (ACHN) was 35.8 µM (inactive). For the same compound, the GI50 (BT-549) was 16.8 µM (inactive), the GI50 (CAKI-1) was 14.5 µM (inactive) and the GI50 (COLO 205) was 12.8 µM (inactive). The GI50 (DU-145) was 18.9 µM (inactive), the GI50 (EKVX) was 35 µM (inactive) and the GI50 (HCC 2998) was 16.9 µM (inactive). The GI50 (HCT-116) was 15.6 µM (inactive), the GI50 (HCT-15) was 10.5 µM and the GI50 (HL-60) was 9.77 µM (inactive). For the same compound, the GI50 (HOP-62) was 17.6 µM (inactive), the GI50 (HT-29) was 3.67 µM (inactive) and the GI50 (Hs-578T) was 34 µM (inactive). The GI50 (IGROV-1) was 31.8 µM (inactive), the GI50 (K562) was 7.98 µM (inactive) and the GI50 (KM12) was 17.8 µM (inactive). For the same compound, the GI50 (LOX IMVI) was 16.5 µM (inactive), the GI50 (MCF7) was 16.6 µM (inactive) and the GI50 (MDA-MB-231) was 19.7 µM (inactive). The GI50 (MDA-MB-435) was 17.3 µM (inactive), the GI50 (MDA-N) was 23 µM (inactive) and the GI50 (MOLT-4) was 15.7 µM (inactive). The GI50 (Malme-3M) was 16.1 µM (inactive), the GI50 (NCI-H226) was 15 µM (inactive) and the GI50 (NCI-H23) was 16.2 µM (inactive). For the same compound, the GI50 (NCI-H460) was 14.9 µM (inactive), the GI50 (NCI-H522) was 17.3 µM (inactive) and the GI50 (NCI/ADR-RES) was 26.1 µM (inactive). For the same compound, the GI50 (OVCAR-3) was 19.5 µM (inactive), the GI50 (OVCAR-4) was 25.5 µM (inactive) and the GI50 (OVCAR-5) was 33 µM (inactive). For the same compound, the GI50 (OVCAR-8) was 21.5 µM (inactive), the GI50 (PC-3) was 19 µM (inactive) and the GI50 (RPMI-8226) was 16.9 µM (inactive). For the same compound, the GI50 (RXF 393) was 17.5 µM (inactive), the GI50 (SF-268) was 34 µM (inactive) and the GI50 (SF-295) was 19.5 µM (inactive). For the same compound, the GI50 (SF-539) was 13.6 µM (inactive), the GI50 (SK-MEL-28) was 15.7 µM (inactive) and the GI50 (SK-MEL-2) was 23.3 µM (inactive). For the same compound, the GI50 (SK-MEL-5) was 12.1 µM (inactive), the GI50 (SN12C) was 45.6 µM (inactive) and the GI50 (SNB-19) was 31.4 µM (inactive). For the same compound, the GI50 (SNB-75) was 26.4 µM (inactive), the GI50 (SR) was 5.31 µM (inactive) and the GI50 (SW-620) was 15.1 µM (inactive). The GI50 (TK-10) was 27.6 µM (inactive), the GI50 (U-251) was 14.4 µM (inactive) and the GI50 (UACC-257) was 16.7 µM (inactive). The GI50 (UACC-62) was 16.9 µM (inactive) and the GI50 (UO-31) was 15.8 µM (inactive).
For `C=C(Cl)C(=C)CCC(Cl)C(C)C` (configuration not stated), the GI50 (786-0) was > 100 µM (inactive), the GI50 (A498) was > 100 µM (inactive) and the GI50 (A549) was > 100 µM (inactive). The GI50 (ACHN) was > 100 µM (inactive), the GI50 (BT-549) was > 100 µM (inactive) and the GI50 (CAKI-1) was > 100 µM (inactive). For the same compound, the GI50 (CCRF-CEM) was > 100 µM (inactive), the GI50 (COLO 205) was > 100 µM (inactive) and the GI50 (DU-145) was > 100 µM (inactive). The GI50 (EKVX) was > 100 µM (inactive), the GI50 (HCC 2998) was > 100 µM (inactive) and the GI50 (HCT-116) was > 100 µM (inactive). For the same compound, the GI50 (HL-60) was > 100 µM (inactive), the GI50 (HOP-62) was > 100 µM (inactive) and the GI50 (HOP-92) was > 100 µM (inactive). The GI50 (HT-29) was > 100 µM (inactive), the GI50 (Hs-578T) was > 100 µM (inactive) and the GI50 (IGROV-1) was > 100 µM (inactive). For the same compound, the GI50 (K562) was > 100 µM (inactive), the GI50 (KM12) was > 100 µM (inactive) and the GI50 (LOX IMVI) was > 100 µM (inactive). For the same compound, the GI50 (M14) was > 100 µM (inactive), the GI50 (MCF7) was > 100 µM (inactive) and the GI50 (MDA-MB-231) was > 100 µM (inactive). For the same compound, the GI50 (MDA-MB-435) was > 100 µM (inactive), the GI50 (MDA-N) was > 100 µM (inactive) and the GI50 (MOLT-4) was > 100 µM (inactive). The GI50 (Malme-3M) was > 100 µM (inactive), the GI50 (NCI-H226) was > 100 µM (inactive) and the GI50 (NCI-H23) was > 100 µM (inactive). For the same compound, the GI50 (NCI-H460) was > 100 µM (inactive), the GI50 (NCI-H522) was > 100 µM (inactive) and the GI50 (NCI/ADR-RES) was > 100 µM (inactive). The GI50 (OVCAR-3) was > 100 µM (inactive), the GI50 (OVCAR-4) was > 100 µM (inactive) and the GI50 (OVCAR-5) was > 100 µM (inactive). The GI50 (PC-3) was > 100 µM (inactive), the GI50 (RPMI-8226) was > 100 µM (inactive) and the GI50 (RXF 393) was > 100 µM (inactive). For the same compound, the GI50 (SF-268) was > 100 µM (inactive), the GI50 (SF-295) was > 100 µM (inactive) and the GI50 (SF-539) was > 100 µM (inactive). For the same compound, the GI50 (SK-MEL-28) was > 100 µM (inactive), the GI50 (SK-MEL-2) was > 100 µM (inactive) and the GI50 (SK-MEL-5) was > 100 µM (inactive). The GI50 (SK-OV-3) was > 100 µM (inactive), the GI50 (SN12C) was > 100 µM (inactive) and the GI50 (SNB-19) was > 100 µM (inactive). The GI50 (SR) was > 100 µM (inactive), the GI50 (SW-620) was > 100 µM (inactive) and the GI50 (TK-10) was > 100 µM (inactive). For the same compound, the GI50 (U-251) was > 100 µM (inactive), the GI50 (UACC-257) was > 100 µM (inactive) and the GI50 (UACC-62) was > 100 µM (inactive). For the same compound, the GI50 (UO-31) was > 100 µM (inactive).
